Laboratory results reported in PubChem BioAssay (NCI).
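Test compounds were applied to cells in 96-well plates for 48 hours at 5 doses. GI50 = concentration required for 50% inhibition of growth. TGI is the concentration that stops growth completely.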

Tests used:
Experiment in all cases: inhibition of tumour cell growth, NCI panel, 48 h
UACC-257 melanoma = system: UACC-257 melanoma
MDA-MB-231 breast = system: MDA-MB-231 breast
OVCAR-5 ovarian = system: OVCAR-5 ovarian
SNB-75 CNS = system: SNB-75 CNS
SK-MEL-5 melanoma = system: SK-MEL-5 melanoma
SK-MEL-2 melanoma = system: SK-MEL-2 melanoma
DU-145 prostate = system: DU-145 prostate
KM12 colon = system: KM12 colon
786-0 renal = system: 786-0 renal
MDA-MB-435 = system: MDA-MB-435
NCI-H226 lung = system: NCI-H226 lung
SK-OV-3 ovarian = system: SK-OV-3 ovarian
HCT-116 colon = system: HCT-116 colon
A549 NSCLC = system: A549 NSCLC
HL-60(TB) leukemia = system: HL-60(TB) leukemia
COLO 205 colon = system: COLO 205 colon
K-562 leukemia = system: K-562 leukemia
OVCAR-8 ovarian = system: OVCAR-8 ovarian
RXF 393 renal = system: RXF 393 renal
MOLT-4 leukemia = system: MOLT-4 leukemia
MALME-3M melanoma = system: MALME-3M melanoma
NCI-H522 lung = system: NCI-H522 lung
SW-620 colon = system: SW-620 colon
PC-3 prostate = system: PC-3 prostate
HCT-15 colon = system: HCT-15 colon
UACC-62 melanoma = system: UACC-62 melanoma
OVCAR-4 ovarian = system: OVCAR-4 ovarian
OVCAR-3 ovarian = system: OVCAR-3 ovarian
IGROV1 ovarian = system: IGROV1 ovarian
M14 melanoma = system: M14 melanoma
NCI/ADR-RES ovarian = system: NCI/ADR-RES ovarian
SF-268 CNS = system: SF-268 CNS
SF-295 CNS = system: SF-295 CNS
CCRF-CEM leukemia = system: CCRF-CEM leukemia
SR leukemia = system: SR leukemia
TK-10 renal = system: TK-10 renal
A498 renal = system: A498 renal
ACHN renal = system: ACHN renal
LOX IMVI melanoma = system: LOX IMVI melanoma
SF-539 CNS = system: SF-539 CNS
NCI-H23 lung = system: NCI-H23 lung
HOP-92 NSCLC = system: HOP-92 NSCLC
NCI-H460 lung = system: NCI-H460 lung
UO-31 renal = system: UO-31 renal
RPMI-8226 leukemia = system: RPMI-8226 leukemia
HCC-2998 colon = system: HCC-2998 colon
T-47D breast = system: T-47D breast
HS 578T breast = system: HS 578T breast
HT29 colon = system: HT29 colon
CAKI-1 renal = system: CAKI-1 renal
SN12C renal = system: SN12C renal
U251 CNS = system: U251 CNS
SNB-19 CNS = system: SNB-19 CNS
MCF7 breast = system: MCF7 breast
SK-MEL-28 melanoma = system: SK-MEL-28 melanoma

Cn1cc(-c2nc(-c3c[nH]c4ccncc34)cs2)c2cc(Br)ccc21 showed a GI50 (UACC-257 melanoma) of 1.99 µM, a TGI (UACC-257 melanoma) of 3.52 µM and a GI50 (MDA-MB-231 breast) of 1.41 µM. For the same compound, the TGI (MDA-MB-231 breast) was 2.84 µM, the GI50 (OVCAR-5 ovarian) was 1.81 µM and the TGI (OVCAR-5 ovarian) was 3.27 µM. It also gave a GI50 (SNB-75 CNS) of 1.23 µM, a TGI (SNB-75 CNS) of 2.54 µM and a GI50 (SK-MEL-5 melanoma) of 1.6 µM. It also gave a TGI (SK-MEL-5 melanoma) of 2.95 µM, a GI50 (SK-MEL-2 melanoma) of 2 µM and a TGI (SK-MEL-2 melanoma) of 3.62 µM. It also gave a GI50 (DU-145 prostate) of 1.82 µM and a TGI (DU-145 prostate) of 3.28 µM.
CNc1ccc(C(=O)CC(O)CCC(C)C2OC(=O)CC(O)CC(=O)CC(O)CC(O)CC(O)CC(O)CC3(O)CC(O)C(C(=O)N4CCOCC4)C(CC(OC4OC(C)C(O)C(N)C4O)/C=C/C=C/C=C/C=C\C=C/C=C/C=C/C2C)O3)cc1 (stereo not given) gave a TGI (KM12 colon) of 0.747 µM, a TGI (786-0 renal) of over 100 µM and a TGI (UACC-257 melanoma) of 0.384 µM. For the same compound, the TGI (MDA-MB-435) was 0.798 µM, the TGI (NCI-H226 lung) was 0.553 µM and the TGI (SK-OV-3 ovarian) was over 100 µM. The TGI (HCT-116 colon) was over 100 µM, the TGI (A549 NSCLC) was over 100 µM and the TGI (HL-60(TB) leukemia) was over 100 µM. It also gave a TGI (OVCAR-5 ovarian) of over 100 µM, a TGI (SK-MEL-5 melanoma) of 0.462 µM and a TGI (COLO 205 colon) of over 100 µM. For the same compound, the TGI (K-562 leukemia) was over 100 µM, the TGI (OVCAR-8 ovarian) was over 100 µM and the TGI (SK-MEL-2 melanoma) was 8.55 µM. The TGI (RXF 393 renal) was 0.637 µM, the TGI (MOLT-4 leukemia) was over 100 µM and the TGI (MALME-3M melanoma) was 0.4 µM. It also gave a TGI (NCI-H522 lung) of 0.55 µM, a TGI (DU-145 prostate) of 3.31 µM and a TGI (SW-620 colon) of over 100 µM.
O=C1Nc2ccccc2/C1=C/C(=O)c1coc2c1C(=O)c1ccccc1C2=O gave a GI50 (PC-3 prostate) of over 100 µM, a TGI (PC-3 prostate) of over 100 µM and a GI50 (HCT-15 colon) of over 100 µM. For the same compound, the TGI (HCT-15 colon) was over 100 µM, the GI50 (KM12 colon) was over 100 µM and the TGI (KM12 colon) was over 100 µM. It also gave a GI50 (UACC-62 melanoma) of 94.4 µM, a TGI (UACC-62 melanoma) of over 100 µM and a GI50 (786-0 renal) of over 100 µM. For the same compound, the TGI (786-0 renal) was over 100 µM, the GI50 (UACC-257 melanoma) was over 100 µM and the TGI (UACC-257 melanoma) was over 100 µM. For the same compound, the GI50 (MDA-MB-435) was over 100 µM, the TGI (MDA-MB-435) was over 100 µM and the GI50 (OVCAR-4 ovarian) was over 100 µM. For the same compound, the TGI (OVCAR-4 ovarian) was over 100 µM, the GI50 (OVCAR-3 ovarian) was over 100 µM and the TGI (OVCAR-3 ovarian) was over 100 µM. It also gave a GI50 (IGROV1 ovarian) of over 100 µM, a TGI (IGROV1 ovarian) of over 100 µM and a GI50 (M14 melanoma) of over 100 µM. For the same compound, the TGI (M14 melanoma) was over 100 µM, the GI50 (NCI/ADR-RES ovarian) was over 100 µM and the TGI (NCI/ADR-RES ovarian) was over 100 µM. The GI50 (SF-268 CNS) was over 100 µM, the TGI (SF-268 CNS) was over 100 µM and the GI50 (SF-295 CNS) was over 100 µM. It also gave a TGI (SF-295 CNS) of over 100 µM, a GI50 (MDA-MB-231 breast) of over 100 µM and a TGI (MDA-MB-231 breast) of over 100 µM. For the same compound, the GI50 (NCI-H226 lung) was over 100 µM, the TGI (NCI-H226 lung) was over 100 µM and the GI50 (CCRF-CEM leukemia) was over 100 µM. The TGI (CCRF-CEM leukemia) was over 100 µM, the GI50 (SK-OV-3 ovarian) was over 100 µM and the TGI (SK-OV-3 ovarian) was over 100 µM. It also gave a GI50 (SR leukemia) of 80.4 µM, a TGI (SR leukemia) of over 100 µM and a GI50 (TK-10 renal) of over 100 µM. It also gave a TGI (TK-10 renal) of over 100 µM, a GI50 (HCT-116 colon) of over 100 µM and a TGI (HCT-116 colon) of over 100 µM. The GI50 (A498 renal) was 45.7 µM, the TGI (A498 renal) was over 100 µM and the GI50 (ACHN renal) was over 100 µM. For the same compound, the TGI (ACHN renal) was over 100 µM, the GI50 (A549 NSCLC) was over 100 µM and the TGI (A549 NSCLC) was over 100 µM. It also gave a GI50 (HL-60(TB) leukemia) of over 100 µM, a TGI (HL-60(TB) leukemia) of over 100 µM and a GI50 (LOX IMVI melanoma) of over 100 µM. For the same compound, the TGI (LOX IMVI melanoma) was over 100 µM, the GI50 (OVCAR-5 ovarian) was over 100 µM and the TGI (OVCAR-5 ovarian) was over 100 µM. The GI50 (SF-539 CNS) was over 100 µM, the TGI (SF-539 CNS) was over 100 µM and the GI50 (NCI-H23 lung) was over 100 µM. The TGI (NCI-H23 lung) was over 100 µM, the GI50 (HOP-92 NSCLC) was 59.7 µM and the TGI (HOP-92 NSCLC) was over 100 µM. It also gave a GI50 (SNB-75 CNS) of 18.9 µM, a TGI (SNB-75 CNS) of over 100 µM and a GI50 (NCI-H460 lung) of over 100 µM. The TGI (NCI-H460 lung) was over 100 µM, the GI50 (UO-31 renal) was 70.4 µM and the TGI (UO-31 renal) was over 100 µM. The GI50 (SK-MEL-5 melanoma) was 30.4 µM, the TGI (SK-MEL-5 melanoma) was over 100 µM and the GI50 (RPMI-8226 leukemia) was over 100 µM. It also gave a TGI (RPMI-8226 leukemia) of over 100 µM, a GI50 (HCC-2998 colon) of over 100 µM and a TGI (HCC-2998 colon) of over 100 µM. The GI50 (COLO 205 colon) was over 100 µM, the TGI (COLO 205 colon) was over 100 µM and the GI50 (T-47D breast) was 56.9 µM. The TGI (T-47D breast) was over 100 µM, the GI50 (K-562 leukemia) was over 100 µM and the TGI (K-562 leukemia) was over 100 µM. The GI50 (OVCAR-8 ovarian) was over 100 µM, the TGI (OVCAR-8 ovarian) was over 100 µM and the GI50 (HS 578T breast) was over 100 µM. It also gave a TGI (HS 578T breast) of over 100 µM, a GI50 (SK-MEL-2 melanoma) of over 100 µM and a TGI (SK-MEL-2 melanoma) of over 100 µM. The GI50 (HT29 colon) was over 100 µM, the TGI (HT29 colon) was over 100 µM and the GI50 (CAKI-1 renal) was 34.2 µM. For the same compound, the TGI (CAKI-1 renal) was over 100 µM, the GI50 (RXF 393 renal) was over 100 µM and the TGI (RXF 393 renal) was over 100 µM. The GI50 (SN12C renal) was over 100 µM, the TGI (SN12C renal) was over 100 µM and the GI50 (U251 CNS) was over 100 µM. It also gave a TGI (U251 CNS) of over 100 µM, a GI50 (MOLT-4 leukemia) of 62.3 µM and a TGI (MOLT-4 leukemia) of over 100 µM. The GI50 (SNB-19 CNS) was over 100 µM, the TGI (SNB-19 CNS) was over 100 µM and the GI50 (MCF7 breast) was 74.7 µM. For the same compound, the TGI (MCF7 breast) was over 100 µM, the GI50 (MALME-3M melanoma) was over 100 µM and the TGI (MALME-3M melanoma) was over 100 µM. It also gave a GI50 (NCI-H522 lung) of over 100 µM, a TGI (NCI-H522 lung) of over 100 µM and a GI50 (DU-145 prostate) of over 100 µM. For the same compound, the TGI (DU-145 prostate) was over 100 µM, the GI50 (SW-620 colon) was 99.6 µM and the TGI (SW-620 colon) was over 100 µM. The GI50 (SK-MEL-28 melanoma) was over 100 µM and the TGI (SK-MEL-28 melanoma) was over 100 µM.
